Key:
Assay type in all cases: cell-based, human
[1] = test system: monocyte-derived dendritic cells (MO-DC); test: MO-DC cytokine and chemokine secretion (ELISA or bioassay of culture supernatants); settings: for IFN-α: bioassay; for IFN-α / IL-6 / IL-8 / IL-12 / MCP-1 / MIP-1α / TNF-α: mean ± SEM
Protocol: Generation of Monocyte-Derived Dendritic Cells (MO-DC). PBMC were isolated with Histopaque HybriMax-1077 density gradient (Sigma) from healthy volunteers after obtaining informed consent. CD14^+ cells were purified by positive selection using CD14^+ microbeads in conjunction with the MiniMACS system (Miltenyi Biotech, Auborn, Calif.) by following the manufacturer's instructions. Purity, as assessed by flow cytometry, was greater than 90%. […] Fresh medium containing GM-CSF and IL-4 was added every three days. MO-DC were routinely used between days 7 and 8 of culture. As a control, depleted lymphocytes were cultured in the same fashion. In Vitro MO-DC Stimulation. […] Cells were subsequently analyzed by flow cytometry for the expression of various cell surface markers, and the cell culture supernatants were analyzed for various cytokines and chemokines by ELISA. Cytokine Analysis. Cytokine levels were measured by ELISA. […] Human IL-6 kits were obtained from Biosource International (Camarillo, Calif.). Human IL-5, IL-8, MIP-1α, MCP-1 and RANTES were purchased from R&D Systems. All ELISA were run according to manufacturer's specifications. […] IFN-α and IFN-β specific antibodies were used to determine which type I IFN was present in the MO-DC supernatants. Results for all ELISAs are presented in pg/ml, whereas IFN results are presented in U/ml.

allogeneic T cells = test: Allogeneic lymphocyte activation (primary MLR) by treated MO-DC: T cell proliferation and cytokines
Protocol: Allogeneic Lymphocyte Activation. T-cells were isolated using T-Cell Purification Columns according to manufacturer's specifications (R&D Systems, Minneapolis, Minn). […] Dendritic cells were subsequently washed, resuspended in cRPMI and added at various concentrations (1-32×10^3 per well) to purified responder T-cells (1×10^5 per well) in 96-well flat-bottomed microtiter plates (BD Labware) in a total volume of 200 μl. […] Each well received 1 μCi [^3H]TdR and was harvested 18 hours later. Results are presented as mean CPM±SEM of triplicate wells. […] Cytokine Analysis. Cytokine levels were measured by ELISA. […] Human IL-6 kits were obtained from Biosource International (Camarillo, Calif.). Human IL-5, IL-8, MIP-1α, MCP-1 and RANTES were purchased from R&D Systems. All ELISA were run according to manufacturer's specifications. […] IFN-α and IFN-β specific antibodies were used to determine which type I IFN was present in the MO-DC supernatants. Results for all ELISAs are presented in pg/ml, whereas IFN results are presented in U/ml.

[2] = test system: monocyte-derived dendritic cells (MO-DC); test: MO-DC cell surface maturation marker expression by flow cytometry
Protocol: Generation of Monocyte-Derived Dendritic Cells (MO-DC). […] CD14^+ cells were purified by positive selection using CD14^+ microbeads in conjunction with the MiniMACS system (Miltenyi Biotech, Auborn, Calif.) by following the manufacturer's instructions. […] Fresh medium containing GM-CSF and IL-4 was added every three days. MO-DC were routinely used between days 7 and 8 of culture. As a control, depleted lymphocytes were cultured in the same fashion. In Vitro MO-DC Stimulation. […] Cells were subsequently analyzed by flow cytometry for the expression of various cell surface markers, and the cell culture supernatants were analyzed for various cytokines and chemokines by ELISA. Cell Surface and Intracellular Flow Cytometry. […] Cells (5-10^5) were incubated for 15 minutes incubation at 4° C. with purified IgD (Becton Dickinson) to block non-specific binding, and then the cells were stained for 30 minutes with the antibodies at 4° C. in PBS containing 10% FCS and 0.1% sodium azide. After washing in PBS, the cells were analyzed using a FACScan flow cytometer and Cell Quest software (Becton Dickinson).

[3] = test system: syngeneic CD3-enriched peripheral blood T cells; test: Autologous T cell activation by treated MO-DC (anamnestic response to tetanus toxoid)
Protocol: Autologous T Cell Activation. Autologous T cells and R-848-treated MO-DC were prepared as described for allogeneic T cell stimulation. MO-DC were cultured with R-848 [2 μg/ml] and tetanus toxoid [10 μg/ml] for 24 hours. The MO-DC were washed and cultured at graded doses with PBMC-derived CD3^+ T cells for 7 days. Cell proliferation and analysis were determined as described. Supernatants were also collected; from the same cultures prior to pulsing with [^3H]TdR and analyzed for IFN-γ and IL-5.
Cytokine Analysis. Cytokine levels were measured by ELISA. Human TNF-α, IL-12 (p40/p70), IFNγ, IL-4 and IL-2 kits were purchased from Genzyme (Cambridge, Mass.). Human IL-6 kits were obtained from Biosource International (Camarillo, Calif.). Human IL-5, IL-8, MIP-1α, MCP-1 and RANTES were purchased from R&D Systems. All ELISA were run according to manufacturer's specifications. IFN levels were; measured by bioassay (40). IFN-α and IFN-β specific antibodies were used to determine which type I IFN was present in the MO-DC supernatants. Results for all ELISAs are presented in pg/ml, whereas IFN results are presented in U/ml.

[4] = 0.1 μg/ml, 24 hours, MO-DC supernatant
[5] = 0.4 μg/ml, 24 hours, MO-DC supernatant
[6] = 2.0 μg/ml, 24 hours, MO-DC supernatant
[7] = 8.0 μg/ml, 24 hours, MO-DC supernatant
[8] = treatment time 1 hr, 2 μg/ml R-848 or 1 μg/ml LPS
[9] = treatment time 6 hr, 2 μg/ml R-848 or 1 μg/ml LPS
[10] = treatment time 24 hr, 2 μg/ml R-848 or 1 μg/ml LPS
[11] = MO-DC treated with 2 and 8 μg/ml, MLR supernatants, 96 hours
[12] = 0.1 μg/ml, 24 hours, vs vehicle
[13] = MO-DC treated with 2 μg/ml and 10 μg/ml tetanus toxoid 24 hours, 7 days co-culture

CCOCc1nc2c(N)nc3ccccc3c2n1CC(C)(C)O [R-848, 4-amino-2-ethoxymethyl-α,α-dimethyl-1H-imidazo [4,5-c]quinoline-1-ethanol]
IFN-α [1, 4]: 8 ± 3 U/ml
IL-6 [1, 4]: 20 ± 12 pg/mL
IL-8 [1, 4]: 425 ± 132 pg/mL
IL-12 [1, 4]: 70 ± 21 pg/mL
MCP-1 [1, 4]: 3603 ± 2158 pg/mL
MIP-1α [1, 4]: 57 ± 57 pg/mL
TNF-α [1, 4]: 6 ± 3 pg/mL
IFN-α [1, 5]: 8 ± 3 U/ml
IL-6 [1, 5]: 399 ± 208 pg/mL
IL-8 [1, 5]: 5125 ± 2430 pg/mL
IL-12 [1, 5]: 106 ± 27 pg/mL
MCP-1 [1, 5]: 4864 ± 2213 pg/mL
MIP-1α [1, 5]: 511 ± 314 pg/mL
TNF-α [1, 5]: 14 ± 4 pg/mL
stimulation time for maximal IL-12 secretion ([1]; 2 μg/ml R-848 or 1 μg/ml LPS): between six and twenty four hours
stimulation time for maximal TNF-α secretion ([1]; 2 μg/ml R-848 or 1 μg/ml LPS): between one and six hours
IFN-α [1, 6]: 27 ± 7 U/ml
IL-6 [1, 6]: 6729 ± 1888 pg/mL
IL-8 [1, 6]: 50092 ± 10385 pg/mL
IL-12 [1, 6]: 15984 ± 3860 pg/mL
MCP-1 [1, 6]: 12941 ± 5802 pg/mL
MIP-1α [1, 6]: 15412 ± 5244 pg/mL
TNF-α [1, 6]: 1540 ± 371 pg/mL
IFN-α [1, 7]: 41 ± 12 U/ml
IL-6 [1, 7]: 9690 ± 1269 pg/mL
IL-8 [1, 7]: 66988 ± 11863 pg/mL
IL-12 [1, 7]: 19640 ± 3966 pg/mL
MCP-1 [1, 7]: 16249 ± 7661 pg/mL
MIP-1α [1, 7]: 25956 ± 5782 pg/mL
TNF-α [1, 7]: 2208 ± 240 pg/mL
inhibition of induced IFN bioactivity by neutralizing IFN-α ([1]; MO-DC supernatants, IFN bioassay): greater than 95%
IL-12 [1, 8]: 65 ± 18 pg/mL
TNF-α [1, 8]: 32 ± 10 pg/mL
IL-12 [1, 9]: 4446 ± 2438 pg/mL
TNF-α [1, 9]: 1053 ± 707 pg/mL
IL-12 [1, 10]: 13153 ± 5484 pg/mL
TNF-α [1, 10]: 335 ± 201 pg/mL
allogeneic T cell proliferation vs untreated MO-DC (allogeneic T cells; MO-DC treated for 6 hours): significantly enhanced
allogeneic T cell proliferation vs untreated MO-DC (allogeneic T cells; MO-DC treated for less than 6 hours): not significantly increased
enhancement of IFN-γ production vs untreated MO-DC cultures (allogeneic T cells; [11]): 2- to 3 fold
enhancement of IL-2 production vs untreated MO-DC cultures (allogeneic T cells; [11]): 2- to 3 fold
enhancement of IL-5 production vs untreated MO-DC cultures (allogeneic T cells; [11]): 2- to 3 fold
IL-2, IL-5 or IFN-γ production by T cells (allogeneic T cells; T cells cultured in the presence of compound, without added MO-DC): do not produce
CD83 cell surface expression [2, 12]: no increase
CD86 cell surface expression [2, 12]: no increase
increase in CD40 expression over vehicle treated MO-DC ([2]; 2 μg/ml, 24 hours): 2 fold
increase in CD80 expression over vehicle treated MO-DC ([2]; 2 μg/ml, 24 hours): 2 fold
maximal average increase in CD80 expression (MFI) ([2]; 2 μg/ml, 24 hours): 3- to 4 fold
maximal average increase in CD86 expression (MFI) ([2]; 2 μg/ml, 24 hours): 3- to 4 fold
decrease in CD1a expression ([2]; 2 μg/ml, 24 hours, vs vehicle): not statistically significant
increase in cell surface HLA-DR expression ([2]; 2 μg/ml, 24 hours, vs vehicle): not quantitatively significant
culture time giving maximal DC maturation marker expression ([2]; 2 μg/ml, 24, 48, 72 and 96 hour stimulation examined): 24 h
CD86 expression ([2]; 0.4, 2 and 8 μg/ml, 24 hours, vs vehicle): Enhanced
cell surface expression of CD83 ([2]; 2 and 8 μg/ml, 24 hours, vs vehicle): Enhanced
CD83 expression ([2]; pulsed 6 hours, stained immediately, 2 μg/ml R-848 or 1 μg/ml LPS): significant increase
CD40, CD80, CD86 and HLA-DR expression ([2]; pulsed 6 hours, stained immediately, 2 μg/ml R-848 or 1 μg/ml LPS, vs medium control): not statistically significant
CD83 and CD40 expression ([2]; pulsed 6 hours, washed, re-cultured 18 hours, 2 μg/ml R-848 or 1 μg/ml LPS): significant increase
expression of CD83, CD80, CD86, CD40 or HLA-DR ([2]; pulsed one hour with 2 μg/ml R-848 or 1 μg/ml LPS, then stained): did not show enhanced expression
expression of CD83, CD80, CD86, CD40 or HLA-DR ([2]; pulsed one hour, washed, re-cultured 23 hours, 2 μg/ml R-848 or 1 μg/ml LPS): did not show enhanced expression
IFN-γ production vs MO-DC cultured only with tetanus toxoid antigen [3, 13]: 4- to 11 fold
increase of syngeneic T cell proliferation vs MO-DC not treated with R-848 [3, 13]: 2to 3 fold
IL-5 in culture supernatants ([3]; MO-DC treated with 2 μg/ml and 10 μg/ml tetanus toxoid, autologous MO-DC/T cell system): not detected

Reference: patent publication US6558951B1, “Maturation of dendritic cells with immune response modifying compounds” (3M Innovative Properties Company, priority 1999, dated 2003)
